Among the data in patent US9822099B2, “Triazole derivatives” (priority 2013, dated 2017) are Eff. % and LogP values, retold here.

Where two headings read alike, the source gives them in different places. Marks after values point to notes of the source that are not given here.

In data set [1] the test system is Fusarium graminearum. It is filed as in vivo. The following applies: 500 ppm of active ingredient; barley, preventive; evaluated 5 days after inoculation.
Data set [2] deals with Fusarium nivale (var. majus). In words: Example J: Fusarium nivale (var. majus)-test (wheat)/preventive. It is filed as in vivo. The following applies: 500 ppm of active ingredient, preventive, evaluated 5 days after inoculation. How it is done: Solvent: 49 parts by weight of N,N-dimethylacetamide
Emulsifier: 1 part by weight of alkylaryl polyglycol ether
To produce a suitable preparation of active compound, 1 part by weight of active compound or active compound combination is mixed with the stated amounts of solvent and emulsifier, and the concentrate is diluted with water to the desired concentration.
To test for preventive activity, young plants are sprayed with the preparation of active compound or active compound combination at the stated rate of application.
After the spray coating has been dried, the plants are slightly injured by using a sandblast and afterwards they are sprayed with a conidia suspension of Fusarium nivale (var. majus).
The plants are placed in the greenhouse under a translucent incubation cabinet at a temperature of approximately 10° C. and a relative atmospheric humidity of approximately 100%.
The test is evaluated 5 days after the inoculation. 0% means an efficacy which corresponds to that of the untreated control, while an efficacy of 100% means that no disease is observed.

In data set [3] the test system is Blumeria graminis f. sp. hordei. The experiment in a line: Example G: Blumeria test (barley)/preventive. The following applies: 500 ppm of active ingredient, preventive, evaluated 7 days after inoculation. It is filed as in vivo. How it is done:
(§1) Solvent: 49 parts by weight of N,N-dimethylacetamide Emulsifier: 1 part by weight of alkylaryl polyglycol ether To produce a suitable preparation of active compound, 1 part by weight of active compound or active compound combination is mixed with the stated amounts of solvent and emulsifier, and the concentrate is diluted with water to the desired concentration. To test for preventive activity, young plants are sprayed with the preparation of active compound or active compound combination at the stated rate of application. After the spray coating has been dried, the plants are dusted with spores of Blumeria graminis f. sp. hordei.

Data set [4] concerns Botrytis cinerea. The experiment in a line: Example A: in vivo preventive test on Botrytis cinerea (grey mould). Conditions: gherkin plants, preventive spray, evaluated 4 to 5 days after inoculation. How it is done: The young plants of gherkin are treated by spraying the active ingredient prepared as described above. Control plants are treated only with an aqueous solution of acetone/Dimethyl sulfoxide/Tween®. After 24 hours, the plants are contaminated by spraying the leaves with an aqueous suspension of Botrytis cinerea spores.

Data set [5] has as its system Sphaerotheca fuliginea. In words: Example E: in vivo preventive test on Sphaerotheca fuliginea (powdery mildew on cucurbits). The following applies: gherkin plants, preventive spray, evaluated 15 days after inoculation. How it is done: The young plants of gherkin are treated by spraying the active ingredient prepared as described above. Control plants are treated only with an aqueous solution of acetone/Dimethyl sulfoxide/Tween®. After 24 hours, the plants are contaminated by spraying the leaves with an aqueous suspension of Sphaerotheca fuliginea spores.

The subject of data set [6] is Uromyces appendiculatus. In words: Example F: in vivo preventive test on Uromyces appendiculatus (bean rust). The following applies: bean plants, preventive spray, evaluated 11 days after inoculation. How it is done:
The young plants of bean are treated by spraying the active ingredient prepared as described above. Control plants are treated only with an aqueous solution of acetone/Dimethyl sulfoxide/Tween®. After 24 hours, the plants are contaminated by spraying the leaves with an aqueous suspension of Uromyces appendiculatus spores.

The subject of data set [7] is Pyricularia oryzae. It counts as in vivo. The following applies: 500 ppm of active ingredient; rice, preventive; evaluated 8 days after inoculation.
Data set [8] relates to Pyrenophora teres. The experiment in a line: Example C: in vivo preventive test on Pyrenophora teres (net blotch on barley). Conditions: 500 ppm of active ingredient; barley plants, preventive spray; evaluated 14 days after inoculation. How it is done:
The young plants of barley are treated by spraying the active ingredient prepared as described above. Control plants are treated only with an aqueous solution of acetone/Dimethyl sulfoxide/Tween®. After 24 hours, the plants are contaminated by spraying the leaves with an aqueous suspension of Pyrenophora teres spores.

Data set [9] relates to Puccinia recondita. The experiment in a line: Example B: in vivo preventive test on Puccinia recondita (brown rust on wheat). Conditions: wheat plants, preventive spray, evaluated 11 days after inoculation. How it is done: The young plants of wheat are treated by spraying the active ingredient prepared as described above. Control plants are treated only with an aqueous solution of acetone/Dimethyl sulfoxide/Tween®. After 24 hours, the plants are contaminated by spraying the leaves with an aqueous suspension of Puccinia recondita spores.

Data set [10] concerns Septoria tritici. In words: Example D: in vivo preventive test on Septoria tritici (leaf spot on wheat). Conditions: wheat plants, preventive spray, evaluated 24 days after inoculation. How it is done: The young plants of wheat are treated by spraying the active ingredient prepared as described above. Control plants are treated only with an aqueous solution of acetone/Dimethyl sulfoxide/Tween®. After 24 hours, the plants are contaminated by spraying the leaves with an aqueous suspension of Septoria tritici spores.

The subject of data set [11] is Phakopsora pachyrhizi. The experiment in a line: Example L: Phakopsora test (soybeans)/preventive. It counts as in vivo. Conditions: 10 ppm of active ingredient, preventive, evaluated 7 days after inoculation.
Data set [12] concerns Leptosphaeria nodorum. The experiment in a line: Example K: Leptosphaeria nodorum test (wheat)/preventive. It counts as in vivo. Conditions: 500 ppm of active ingredient, preventive, evaluated 8 days after inoculation. How it is done: as §1, with “sprayed” for “dusted”, “a spore suspension” for “spores”, “Leptosphaeria nodorum.” for “Blumeria graminis f. sp. hordei.”

On to `OC(Cc1ccnc2ccccc12)(Cn1cncn1)C1(Cl)CC1` (stereo not drawn) [Example I-27], for which the Eff. % in data set [1] is 100%; in [2], 93%; in data set [3] it was 100%; in data set [4] (100 ppm of active ingredient), 98%; in data set [5] (100 ppm of active ingredient) it was 100%; in [6] (100 ppm of active ingredient) it was 98%. In data set [7], this compound had an Eff. % of 89%. Moreover, the LogP (pH 2.7) was 1.00^[a].
`OC(Cc1ncnc(Cl)c1Cl)(Cn1cncn1)C1(Cl)CC1` (stereo not drawn) [Example I-57]: the Eff. % in [2] was determined as 71%; in data set [8], 88%; in data set [3] it was 100%; in data set [9] (500 ppm of active ingredient), 86%; in data set [5] (500 ppm of active ingredient), 95%; in [6] (500 ppm of active ingredient), 96%. In [10] (500 ppm of active ingredient), this compound registered an Eff. % of 92%. For the same compound, where the note is “pH 2.7”, the LogP was 2.28^[a].
Regarding `OC(Cc1cc(Cl)cnc1Cl)(Cn1cncn1)C1(Cl)CC1` (racemic) [Example I-83], the Eff. % was found to be 88% in [8]; 100% in data set [9] (500 ppm of active ingredient); 100% in data set [4] (500 ppm of active ingredient); 100% in [5] (500 ppm of active ingredient); 100% in data set [6] (500 ppm of active ingredient); 100% in data set [10] (500 ppm of active ingredient). For the same compound, the LogP (pH 2.7) is 2.53^[a].
Take `OC(Cc1nccnc1Cl)(Cn1cncn1)C1(Cl)CC1` (stereo not drawn) [Example I-30]: the Eff. % in data set [11] is 75%; in [5] (100 ppm of active ingredient), 94%; in data set [6] (100 ppm of active ingredient) it was 100%. Besides, the LogP (pH 2.7) is 1.86^[a].
With `OC(Cc1cc(Cl)nnc1Cl)(Cn1cncn1)C1(Cl)CC1` (stereo not drawn) [Example I-46], the Eff. % in data set [1] came to 92%; in [2], 100%; in data set [9] (100 ppm of active ingredient), 88%; in [12], 83%; in data set [5] (100 ppm of active ingredient), 100%; in data set [10] (100 ppm of active ingredient), 100%. Also, the Eff. % in [7] turned out to be 78%. In addition, the LogP (pH 2.7) is 1.92^[a].
As to `OC(Cc1cccnc1Cl)(Cn1cncn1)C1(Cl)CC1` (single isomer, unassigned) [Example I-94], the Eff. % turned out to be 100% in data set [2], 100% in data set [3], 71% in data set [12] and 70% in data set [7]. The LogP by setting is: (pH 2.7) 1.81^[a]; (pH 7.8) 1.79^[b];.
With `OC(Cc1ccncn1)(Cn1cncn1)C1(Cl)CC1` (stereo not drawn) [Example I-50], the Eff. % in data set [8] stood at 79%; in data set [9] (500 ppm of active ingredient) it was 94%; in [4] (500 ppm of active ingredient), 100%; in data set [5] (500 ppm of active ingredient), 100%; in [6] (500 ppm of active ingredient) it was 100%; in [10] (500 ppm of active ingredient), 100%. In addition, the LogP (pH 2.7) was 1.10^[a].
Consider `OC(Cc1ccnc(Cl)c1)(Cn1cncn1)C1(F)CC1` (stereo not drawn) [Example I-33], for which the Eff. % came out at 100% in [1]; 93% in data set [2]; 75% in data set [8]; 100% in data set [3]; 93% in data set [9] (500 ppm of active ingredient); 94% in [4] (100 ppm of active ingredient). For the same compound, the Eff. % in data set [12] was 86%; in [5] (500 ppm of active ingredient), 100%; in data set [6] (500 ppm of active ingredient), 100%; in data set [10] (500 ppm of active ingredient), 100%. Further, the LogP (pH 2.7) is 1.44^[a].
On to `OC(Cc1ccc(Cl)cn1)(Cn1cncn1)C1(Cl)CC1` (racemic) [Example I-67], for which the Eff. % in data set [8] amounted to 86%; in data set [9] (500 ppm of active ingredient) it was 98%; in data set [4] (500 ppm of active ingredient) it was 99%; in data set [5] (500 ppm of active ingredient), 98%; in [6] (500 ppm of active ingredient), 100%; in [10] (500 ppm of active ingredient), 100%. Besides, the LogP (pH 2.7) is 2.23^[a].
For `OC(Cc1cc(F)ncc1Cl)(Cn1cncn1)C1(Cl)CC1` (racemic) [Example I-89], the Eff. % in [8], in data set [9] (500 ppm of active ingredient), in data set [4] (500 ppm of active ingredient), in data set [5] (500 ppm of active ingredient), in data set [6] (500 ppm of active ingredient) and in data set [10] (500 ppm of active ingredient) was 100% throughout. Further, the LogP (pH 2.7) was 2.30^[a].
As for `OC(Cc1ccc(Cl)c(Cl)n1)(Cn1cncn1)C1(Cl)CC1` (stereo not drawn) [Example I-31], the Eff. % in data set [2] amounted to 75%; in data set [3], 100%; in [9] (100 ppm of active ingredient), 83%; in data set [12] it was 88%; in data set [5] (100 ppm of active ingredient), 90%; in data set [6] (100 ppm of active ingredient) it was 94%. The same compound yielded an Eff. % in [10] (100 ppm of active ingredient) of 100%. Further, the LogP (pH 2.7) was 2.66^[a].
Turning to `OC(Cc1nccnc1Br)(Cn1cncn1)C1(Cl)CC1` (racemic) [Example I-71], the Eff. % in [1] came out at 100%; in data set [2], 94%; in data set [8], 79%; in [3] it was 100%; in data set [9] (500 ppm of active ingredient), 94%; in data set [4] (500 ppm of active ingredient), 100%. Also, the Eff. % in data set [5] (500 ppm of active ingredient) was found to be 100%; in data set [6] (500 ppm of active ingredient), 99%; in data set [10] (500 ppm of active ingredient), 100%; in data set [7], 80%. The LogP (pH 2.7) is 1.96^[a].
With `CC(C)(Oc1ccc(Cl)cc1)C(O)(Cc1ccncc1Cl)Cn1cncn1` (racemic) [Example I-70], the Eff. % in [2] was found to be 88%; in data set [3], 100%; in data set [9] (500 ppm of active ingredient), 94%; in [12] it was 89%; in data set [5] (500 ppm of active ingredient), 100%; in data set [6] (500 ppm of active ingredient) it was 99%. Also, the Eff. % in data set [10] (500 ppm of active ingredient) amounted to 100%. In addition, the LogP (pH 2.7) is 2.84^[a].
As to `CC(CF)(CF)C(O)(Cc1ccnc(Cl)c1)Cn1cncn1` (stereo not drawn) [Example I-36], the Eff. % worked out at 94% in data set [1]; 88% in [8]; 100% in data set [3]; 97% in data set [9] (500 ppm of active ingredient); 100% in data set [5] (500 ppm of active ingredient); 100% in [6] (500 ppm of active ingredient). The Eff. % in data set [10] (500 ppm of active ingredient) was found to be 100%. Further, the LogP (pH 2.7) is 1.66^[a].
`OC(Cc1cc(Cl)ncc1F)(Cn1cncn1)C1(Cl)CC1` (stereo not drawn) [Example I-40]: the Eff. % is 100% in data set [1]; 86% in data set [2]; 100% in data set [8]; 100% in [3]; 97% in data set [9] (500 ppm of active ingredient); 73% in data set [11]. The Eff. % in [4] (500 ppm of active ingredient) stood at 97%; in data set [12], 100%; in data set [5] (500 ppm of active ingredient), 100%; in [6] (500 ppm of active ingredient), 100%; in data set [10] (500 ppm of active ingredient), 100%. In addition, under “pH 2.7”, the LogP was 2.06^[a].
